# Measured values reported in patent publication US10626107B2, “Crystal form, salt type of substituted 2-hydro-pyrazole derivative and preparation method therefor” (CHIA TAI TIANQING PHARMACEUTICAL GROUP CO., LTD., priority 2016, dated 2020).
# Experiments:
# [1] = target: CDK6/cyclin D1 (Homo sapiens (Human), UniProt Q00534); assay: CDK6/cyclin D1 enzymatic activity (Lance Ultra); format: biochemical; details: 180 minutes
# Description: The components of the buffer included 50 mM hydroxyethylpiperazine ethanesulfonic acid solution (pH 7.5), 1 mM ethylenediaminetetraacetic acid, 10 mM magnesium chloride, 0.01% Brij-35, and 2 mM dithiothreitol.
# [2] = system: human breast cancer MCF-7 subcutaneous xenograft tumor; format: in vivo; details: 18.75 mg/kg PO QD × 3W
# Description: Cell line-derived xenograft (CDX) BALB/c nude mice that were female, 6- to 8-week old, weighed 20 g, and subcutaneously implanted with human tumor cell line derived from MCF-7 breast cancer patients were used. A total of 150 mice were needed, which were purchased from Beijing Vital River Laboratory Animal Technology Co., Ltd.
# BALB/c nude mice that were female, 6- to 8-week old, and weighed approximately 20 g were used. The mice were maintained in separate ventilated cages (10 mice per cage) in a special pathogen-free environment. All the cages, bedding and water were disinfected prior to use. All the animals were free to access a standard certified commercial laboratory diet. A total of 150 mice were purchased from Beijing Vital River Laboratory Animal Technology Co., Ltd. for research. Each mouse was implanted subcutaneously with an estrogen tablets (0.18 mg/tablet, 60-day sustained release) in the left back. After 3 days, each mouse was implanted with tumor cells (10×10^6 in 0.2 mL of phosphate buffer) subcutaneously in the right back for tumor growth. Administration was started when the average tumor volume reached about 150 to 200 mm^3. The test compounds were orally administered daily, and the administration dosages were as shown in the above table. The tumor volumes were measured twice a week using a two-dimensional caliper. The volumes were expressed in cubic millimeters and calculated by the following formula: V=0.5 a×b^2, wherein a and b were the long diameter and short diameter of a tumor, respectively. The anti-tumor efficacy was determined by dividing the average increase of the tumor volumes of the animals treated with a compound by the average increase of the tumor volumes of the animals without being treated with the compound.
# [3] = Study on the hygroscopicity (dynamic vapor sorption); format: physicochemical; details: 25° C. and 80% RH
# Description: Model of instrument: SMSDVS Advantage dynamic vapor sorption analyzer
# Test conditions: A sample (10 to 15 mg) was placed in a DVS sample pan for testing.
# DVS parameters: • Temperature: 25° C. • Balance: dm/dt=0.01%/min (minimum: 10 min, maximum: 180 min) • Drying: drying for 120 min at 0% RH • Test gradient of RH (%): 10% • Test gradient range of RH (%): 0%-90%-0%
# Chain of CDK6/cyclin D1 (Q00534 whole entry): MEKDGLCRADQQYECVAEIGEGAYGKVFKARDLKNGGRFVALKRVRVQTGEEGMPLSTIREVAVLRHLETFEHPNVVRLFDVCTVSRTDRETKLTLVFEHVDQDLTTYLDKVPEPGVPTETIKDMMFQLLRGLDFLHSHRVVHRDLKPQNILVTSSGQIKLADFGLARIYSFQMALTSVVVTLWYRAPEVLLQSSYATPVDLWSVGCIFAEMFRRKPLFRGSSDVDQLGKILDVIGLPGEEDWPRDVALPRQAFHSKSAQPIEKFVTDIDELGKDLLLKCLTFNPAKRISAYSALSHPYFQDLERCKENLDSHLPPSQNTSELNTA
# Chain of CDK6/cyclin D1 (P24385 whole entry partner): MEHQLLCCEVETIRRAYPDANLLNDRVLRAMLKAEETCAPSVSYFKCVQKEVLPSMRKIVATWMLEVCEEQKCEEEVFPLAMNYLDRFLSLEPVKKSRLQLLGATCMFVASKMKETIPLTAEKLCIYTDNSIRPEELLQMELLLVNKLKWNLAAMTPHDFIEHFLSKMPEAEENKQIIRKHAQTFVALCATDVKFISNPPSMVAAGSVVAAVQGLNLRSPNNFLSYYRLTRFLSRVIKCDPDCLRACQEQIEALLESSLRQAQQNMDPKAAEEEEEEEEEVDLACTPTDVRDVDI
smiles,measurement,setting,value
CC(C)c1c2cc(-c3nc(Nc4ccc(N5CCNCC5)cn4)ncc3F)ccc2nn1C.O=C(O)/C=C\C(=O)O [A crystal form of compound WX_1],IC50,[1],< 0.8 nM
same,Tumor volume Day 0,[2]; Day 0,153 mm^3
same,Tumor volume Day 7,[2]; Day 7,156 mm^3
same,Tumor volume Day 14,[2]; Day 14,136 mm^3
same,Tumor volume Day 20,[2]; Day 20,98 mm^3
same,hygroscopic weight gain,[3],1.48%
